Measurements as given in patent publication US11339136B2 (Novartis AG, priority 2016, dated 2022).

Biological target: T1, hNLRP3 (Homo sapiens, UniProt Q96P20)
T1 construct: THP-1 cells were purchased from the American Type Culture Collection; host or cells: THP-1 cells, PMA-differentiated
Assay: IL-1β production in PMA-differentiated THP-1 cells stimulated with gramicidin
Format: cell-based
Conditions: gramicidin 5 μM, IL-1β in supernatant
Protocol: Bioassay: IL-1β Production in PMA-Differentiated THP-1 Cells Stimulated with Gramicidin. Procedure 1:
Cell culture—THP-1 cells were purchased from the American Type Culture Collection and sub-cultured according to instructions from the supplier. Prior to experiments, cells were cultured in RPMI 1640 containing 10% heat inactivated FBS, penicillin (100 units/ml) and streptomycin (100 μg/ml), and maintained in log phase prior to experimental setup. Prior to the experiment THP-1 were treated with PMA (Phorbol 12-myristate 13-acetate) (10 μg/ml) for 24 hours. The day of the experiment the media was removed and attaching cells were treated with trypsin for 2 minutes, cells were then collected, washed with PBS (phosphate buffer saline), spin down, resuspended in 2% heat inactivated FBS with RPMI at a concentration of 1×10^6 cells/ml, and 100 ul was plated in a 96 well plate. Cells were incubated with compounds for 1 hours and then stimulated with Gramicidin (5 μM) (Enzo) for 2 hours. Cell free supernatant was collected and the production of IL-1β was evaluated by ELISA. Compounds were dissolved in dimethyl sulfoxide (DMSO) and added to the culture medium to achieve desired concentration (e.g. 100, 30, 10, 3, 1, 0.3 or 0.1 μM). A vehicle only control was run concurrently with each experiment. Final DMSO concentration was 1%.
THP-1 cells were purchased from the American Type Culture Collection and sub-cultured according to instructions from the supplier. Prior to experiments, cells were cultured in complete RPMI 1640 (containing 10% heat inactivated FBS, penicillin (100 units/ml) and streptomycin (100 μg/ml)), and maintained in log phase prior to experimental setup. Prior to the experiment THP-1 were treated with PMA (Phorbol 12-myristate 13-acetate) (20 ng/ml) for 16-18 hours. On the day of the experiment the media was removed and adherent cells were detached with trypsin for 5 minutes. Cells were then harvested, washed with complete RPMI 1640, spun down, resuspended in RPMI 1640 (containing 2% heat inactivated FBS, penicillin (100 units/ml) and streptomycin (100 μg/ml). The cells were plated in a 384-well plate at a density of 50,000 cells/well (final assay volume 50 μl). Compounds were dissolved in dimethyl sulfoxide (DMSO) and added to the culture medium to achieve desired concentration (e.g. 100, 33, 11, 3.7, 1.2, 0.41, 0.14, 0.046, 0.015, 0.0051, 0.0017 μM). Cells were incubated with compounds for 1 hour and then stimulated with gramicidin (5 μM) (Enzo) for 2 hours. Cell free supernatant was collected and the production of IL-1β was evaluated by HTRF (cisbio). A vehicle only control was run concurrently with each experiment. Final DMSO concentration was 0.38%.

T1 sequence (Q96P20 whole entry): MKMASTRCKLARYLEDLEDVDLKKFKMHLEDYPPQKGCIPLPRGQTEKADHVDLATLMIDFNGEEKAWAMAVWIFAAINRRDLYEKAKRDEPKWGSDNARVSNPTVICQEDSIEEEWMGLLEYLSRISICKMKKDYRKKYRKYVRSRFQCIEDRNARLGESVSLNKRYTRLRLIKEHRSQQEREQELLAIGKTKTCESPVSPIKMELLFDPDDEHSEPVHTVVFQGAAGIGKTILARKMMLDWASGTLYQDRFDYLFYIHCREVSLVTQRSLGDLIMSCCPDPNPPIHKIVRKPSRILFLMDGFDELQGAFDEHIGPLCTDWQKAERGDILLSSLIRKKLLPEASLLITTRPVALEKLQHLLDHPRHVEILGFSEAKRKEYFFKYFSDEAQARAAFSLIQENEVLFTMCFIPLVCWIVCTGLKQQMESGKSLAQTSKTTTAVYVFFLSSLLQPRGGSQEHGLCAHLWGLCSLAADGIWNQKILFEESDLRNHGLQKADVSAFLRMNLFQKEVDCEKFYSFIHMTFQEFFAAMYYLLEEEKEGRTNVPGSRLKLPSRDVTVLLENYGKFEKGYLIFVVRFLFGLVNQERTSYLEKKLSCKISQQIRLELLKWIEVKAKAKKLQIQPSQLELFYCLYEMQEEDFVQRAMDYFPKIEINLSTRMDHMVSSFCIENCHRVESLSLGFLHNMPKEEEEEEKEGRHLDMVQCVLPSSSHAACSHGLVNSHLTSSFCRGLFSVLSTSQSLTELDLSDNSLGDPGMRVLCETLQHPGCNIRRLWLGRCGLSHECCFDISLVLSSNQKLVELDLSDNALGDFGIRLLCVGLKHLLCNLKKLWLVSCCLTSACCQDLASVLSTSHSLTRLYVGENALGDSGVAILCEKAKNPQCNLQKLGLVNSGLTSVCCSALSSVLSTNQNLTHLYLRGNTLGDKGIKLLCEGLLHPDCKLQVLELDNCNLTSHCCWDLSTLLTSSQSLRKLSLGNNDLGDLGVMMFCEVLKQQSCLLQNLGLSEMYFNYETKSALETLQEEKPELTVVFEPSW

Compound	IC50 (Table 1) [µM]	IC50 (Table 2) [µM]
CC(C)c1cc(C#N)cc(C(C)C)c1NC(=O)NS(=O)(=O)c1cc(C(C)(C)O)co1 [Compound 104, N-(4-cyano-2,6-diisopropylphenyl-carbamoyl)-4-(2-hydroxypropan-2-yl)furan-2-sulfonamide]	< 1	
CC(C)(O)c1coc(S(=O)(=O)NC(=O)Nc2c3c(c(C#N)c4c2CCC4)CCC3)c1 [Compound 105, N-(8-cyano-1,2,3,5,6,7-hexahydros-indacen-4-ylcarbamoyl)-4-(2-hydroxypropan-2-yl)furan-2-sulfonamide]	< 1	
CC(C)c1cc(F)cc(C(C)C)c1NC(=O)NS(=O)(=O)c1cc(C(C)(C)O)co1 [Compound 115, N-(4-fluoro-2,6-diisopropylphenyl-carbamoyl)-4-(2-hydroxypropan-2-yl)furan-2-sulfonamide]	< 1	
CC(C)c1cc(C(N)=O)cc(C(C)C)c1NC(=O)NS(=O)(=O)c1cc(C(C)(C)O)co1 [Compound 116, 4-(3-(4-(2-hydroxypropan-2-yl)furan-2-ylsulfonyl)ureido)-3,5-diisopropylbenz-amide]	15 to 35	
CC(C)c1cncc(C(C)C)c1NC(=O)NS(=O)(=O)c1ncc(C(C)(C)O)s1 [Compound 138]		1 to 5
CC(C)c1cc(F)cc(C(C)C)c1NC(=O)NS(=O)(=O)c1ncc(C(C)(C)O)s1 [Compound 139, N-(4-fluoro-2,6-diisopropylphenyl-carbamoyl)-5-(2-hydroxypropan-2-yl)thiazole-2-sulfonamide]		< 1
CC(C)c1ccc(Cl)c(C(C)C)c1NC(=O)NS(=O)(=O)c1nc(C(C)(C)O)cs1 [Compound 144, N-(3-chloro-2,6-diisopropylphenylcarbamoyl)-4-(2-hydroxypropan-2-yl) thiazole-2-sulfonamide]		1 to 5
CC(C)c1ccc(F)c(C(C)C)c1NC(=O)NS(=O)(=O)c1nc(C(C)(C)O)cs1 [Compound 145, N-(3-fluoro-2,6-diisopropylphenylcarbamoyl)-4-(2-hydroxypropan-2-yl)thiazole-2-sulfonamide]		1 to 5
CC(C)c1cc(C#N)cc(C(C)C)c1NC(=O)NS(=O)(=O)c1nc(C(C)(C)O)cs1 [Compound 146, N-(4-cyano-2,6-diisopropylphenylcarbamoyl)-4-(2-hydroxypropan-2-yl)thiazole-2-sulfonamide]		1 to 5
CC(C)c1cc(Cl)cc(C(C)C)c1NC(=O)NS(=O)(=O)c1nc(C(C)(C)O)cs1 [Compound 147, N-(4-chloro-2,6-diisopropylphenylcarbamoyl)-4-(2-hydroxypropan-2-yl)thiazole-2-sulfonamide]		1 to 5
CC(C)c1cc(F)cc(C(C)C)c1NC(=O)NS(=O)(=O)c1nc(C(C)(C)O)cs1 [Compound 148, N-(4-fluoro-2,6-diisopropylphenylcarbamoyl)-4-(2-hydroxypropan-2-yl) thiazole-2-sulfonamide]		1 to 5
Cc1nc(S(=O)(=O)NC(=O)Nc2c(C(C)C)ccc(Cl)c2C(C)C)sc1C(C)(C)O [Compound 149, N-(3-chloro-2,6-diisopropylphenylcarbamoyl)-5-(2-hydroxypropan-2-yl)-4-methylthiazole-2-sulfonamide]		15 to 35
Cc1nc(S(=O)(=O)NC(=O)Nc2c(C(C)C)ccc(F)c2C(C)C)sc1C(C)(C)O [Compound 150, N-(3-fluoro-2,6-diisopropylphenylcarbamoyl)-5-(2-hydroxypropan-2-yl)-4-methylthiazole-2-sulfonamide]		< 1
Cc1nc(S(=O)(=O)NC(=O)Nc2c(C(C)C)cc(Cl)cc2C(C)C)sc1C(C)(C)O [Compound 151, N-(4-chloro-2,6-diisopropylphenylcarbamoyl)-5-(2-hydroxypropan-2-yl)-4-methylthiazole-2-sulfonamide]		1 to 5
Cc1nc(S(=O)(=O)NC(=O)Nc2c(C(C)C)cc(F)cc2C(C)C)sc1C(C)(C)O [Compound 152, N-(4-fluoro-2,6-diisopropylphenylcarbamoyl)-5-(2-hydroxypropan-2-yl)-4-methylthiazole-2-sulfonamide]		5 to 15
Cc1sc(S(=O)(=O)NC(=O)Nc2c(C(C)C)ccc(Cl)c2C(C)C)cc1C(C)(C)O [Compound 153, N-(3-chloro-2,6-diisopropylphenyl-carbamoyl)-4-(2-hydroxypropan-2-yl)-5-methylthiophene-2-sulfonamide]		5 to 15
Cc1sc(S(=O)(=O)NC(=O)Nc2c(C(C)C)ccc(F)c2C(C)C)cc1C(C)(C)O [Compound 154, N-(3-fluoro-2,6-diisopropylphenylcarbamoyl)-4-(2-hydroxypropan-2-yl)-5-methylthiophene-2-sulfonamide]		1 to 5
Cc1nc(S(=O)(=O)NC(=O)Nc2c(C(C)C)cc(C#N)cc2C(C)C)sc1C(C)(C)O [Compound 155]		5 to 15
Cc1sc(S(=O)(=O)NC(=O)Nc2c(C(C)C)cc(Cl)cc2C(C)C)cc1C(C)(C)O [Compound 156, N-(4-chloro-2,6-diisopropylphenyl-carbamoyl)-4-(2-hydroxypropan-2-yl)-5-methylthiophene-2-sulfonamide]		< 1
Cc1sc(S(=O)(=O)NC(=O)Nc2c(C(C)C)cc(F)cc2C(C)C)cc1C(C)(C)O [Compound 157, N-(4-fluoro-2,6-diisopropylphenyl-carbamoyl)-4-(2-hydroxypropan-2-yl)-5-methylthiophene-2-sulfonamide]		< 1
CCc1cc(C#N)cc(CC)c1NC(=O)NS(=O)(=O)c1ncc(C(C)(C)O)s1 [Compound 158, N-(4-cyano-2,6-diethylphenylcarbamoyl)-5-(2-hydroxypropan-2-yl)thiazole-2-sulfonamide]		1 to 5
CCc1cc(C#N)cc(CC)c1NC(=O)NS(=O)(=O)c1cc(C(C)(C)O)cs1 [Compound 159, N-(4-cyano-2,6-diethylphenylcarbamoyl)-4-(2-hydroxypropan-2-yl)thiophene-2-sulfonamide]		1 to 5
CCc1cc(F)cc(CC)c1NC(=O)NS(=O)(=O)c1cc(C(C)(C)O)cs1 [Compound 161, N-(2,6-diethyl-4-fluorophenylcarbamoyl)-4-(2-hydroxypropan-2-yl)thiophene-2-sulfonamide]		1 to 5
Cc1sc(S(=O)(=O)NC(=O)Nc2c(C(C)C)cc(C#N)cc2C(C)C)cc1C(C)(C)O [Compound 162, N-(4-cyano-2,6-diisopropylphenyl-carbamoyl)-4-(2-hydroxypropan-2-yl)-5-methylthiophene-2-sulfonamide]		< 1
CCc1ccc2c(c1NC(=O)NS(=O)(=O)c1ncc(C(C)(C)O)s1)CCC2 [Compound 165, N-(5-ethyl-2,3-dihydro-1H-inden-4-ylcarbamoyl)-5-(2-hydroxypropan-2-yl) thiazole-2-sulfonamide]		1 to 5
CCc1ccc2c(c1NC(=O)NS(=O)(=O)c1cc(C(C)(C)O)cs1)CCC2 [Compound 166, N-(5-ethyl-2,3-dihydro-1H-inden-4-ylcarbamoyl)-4-(2-hydroxypropan-2-yl)thiophene-2-sulfonamide]		1 to 5
CC(C)c1ccc(F)c(C(C)C)c1NC(=O)NS(=O)(=O)c1ncc(C2(O)CCCCC2)s1 [Compound 167, N-(3-fluoro-2,6-diisopropylphenylcarbamoyl)-5-(1-hydroxycyclohexyl) thiazole-2-sulfonamide]		5 to 15
CC(C)c1ccc(F)c(C(C)C)c1NC(=O)NS(=O)(=O)c1ncc(C2(O)CCCC2)s1 [Compound 168, N-(3-fluoro-2,6-diisopropylphenylcarbamoyl)-5-(1-hydroxycyclopentyl) thiazole-2-sulfonamide]		5 to 15
